{"source": "paper PMC8059291", "about": "(Antiviral Research, 2021)", "biological_target": "SARS-CoV-2 RdRp (Severe acute respiratory syndrome coronavirus 2, UniProt P0DTD1)", "assay": "CoV-Gluc RNA levels by real-time RT-PCR after NA treatment", "type": "cell-based", "conditions": "HEK293T, 1 μM, 24 h", "data": [{"smiles": "CCC(CC)COC(=O)[C@H](C)N[P@](=O)(OC[C@H]1O[C@@](C#N)(c2ccc3c(N)ncnn23)[C@H](O)[C@@H]1O)Oc1ccccc1", "note": "[Remdesivir]", "values": [{"measurement": "reduction of minus-strand Gluc RNA", "value": 60, "unit": "%"}]}]}
